Data published in patent US11566007B2, “Ras inhibitors” (Revolution Medicines, Inc., priority 2019, dated 2023).
pEC50, pIC50: −log10 of the molar value.

Experiments:
[1] = molecular target: KRAS G13D (Homo sapiens (Human), UniProt P01116+P62937, G13D); assay: Ras-Raf (BRAF RBD) disruption / FRET / MOA assay, KRAS G13D; assay type: biochemical; conditions: read-out: IC50* KRAS G13D FRET data
Method in brief: (§1)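 A 10-point, 3-fold dilution series topping at 30 μM final was incubated 3 h at 25° C with the Ras/cyclophilin A/BRAF RBD mixture.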

[2] = molecular target: KRAS WT (Homo sapiens (Human), UniProt P01116+P62937); assay: Ras-Raf (BRAF RBD) disruption / FRET / MOA assay, KRAS WT; assay type: biochemical; conditions: read-out: IC50* KRAS WT FRET data
Method in brief: as §1

[3] = system: NCI-H358 (K-Ras G12C); assay: CellTiter-Glo cell viability assay, NCI-H358; assay type: cell-based, human; conditions: Homo sapiens, NCI-H358, 120 h, NCI-H358, 5-day treatment; class symbols; read-out: Additional H358 Cell Viability assay data (K-Ras G12C, IC50)
Method in brief: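 Compounds dispensed directly onto seeded K-Ras mutant cells; plates read on day 5 after ~30 min equilibration to room temperature, by CellTiter-Glo luminescence. Signal normalized as (sample/mean DMSO)×100, then fitted to a four-parameter logistic curve.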

[4] = molecular target: KRAS G12S (Homo sapiens (Human), UniProt P01116+P62937, G12S); assay: Ras-Raf (BRAF RBD) disruption / FRET / MOA assay, KRAS G12S; assay type: biochemical; conditions: Ras-Raf disruption/FRET/MOA assay; class symbols; read-out: KRAS G12S FRET data IC50
Method in brief: as §1

[5] = molecular target: KRAS G12D (Homo sapiens (Human), UniProt P01116+P62937, G12D); assay: Ras-Raf (BRAF RBD) disruption / FRET / MOA assay, KRAS G12D; assay type: biochemical; conditions: Ras-Raf disruption/FRET/MOA assay; class symbols; read-out: KRAS G12D FRET data IC50
Method in brief: as §1

[6] = molecular target: K-Ras G12C (Homo sapiens (Human), UniProt P01116+P62937, G12C); assay: Ras-Raf (BRAF RBD) disruption / FRET / MOA assay, KRAS G12C; assay type: biochemical; conditions: KRAS G12C; Ras-Raf disruption/FRET/MOA assay; read-out: IC50* KRAS G12C FRET data
Method in brief: as §1

[7] = molecular target: K-Ras G13C (Homo sapiens (Human), UniProt P01116+P62937, G13C); assay: Ras-Raf (BRAF RBD) disruption / FRET / MOA assay, KRAS G13C; assay type: biochemical; conditions: KRAS G13C; Ras-Raf disruption/FRET/MOA assay; read-out: IC50* KRAS G13C FRET data
Method in brief: as §1

[8] = molecular target: KRAS G12V (Homo sapiens (Human), UniProt P01116+P62937, G12V); assay: Ras-Raf (BRAF RBD) disruption / FRET / MOA assay, KRAS G12V; assay type: biochemical; conditions: read-out: IC50* KRAS G12V FRET data
Method in brief: as §1

[9] = system: NCI-H358 cells (K-Ras G12C); assay: Potency assay: pERK in NCI-H358 cells; assay type: cell-based, human; conditions: Homo sapiens, NCI-H358; H358 KRAS G12C; read-out: pERK EC50
Method in brief: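 pERK decrease read by AlphaLISA SureFire p-ERK1/2 or In-Cell Western after 4 h compound exposure at 37 °C, 5% CO2.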

[10] = molecular target: NRAS G12C (Homo sapiens (Human), UniProt P01111+P62937, G12C); assay: Ras-Raf (BRAF RBD) disruption / FRET / MOA assay, NRAS G12C; assay type: biochemical; conditions: read-out: IC50* NRAS G12C FRET data
Method in brief: as §1

Chain of KRAS WT (P01116-2 other isoform, or with tags, fused parts or gaps): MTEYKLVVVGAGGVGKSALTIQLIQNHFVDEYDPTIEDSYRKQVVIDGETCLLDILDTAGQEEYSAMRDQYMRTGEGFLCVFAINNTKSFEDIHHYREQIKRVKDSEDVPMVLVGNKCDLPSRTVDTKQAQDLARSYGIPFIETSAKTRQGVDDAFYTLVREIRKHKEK
Chain of KRAS WT (P62937 whole entry): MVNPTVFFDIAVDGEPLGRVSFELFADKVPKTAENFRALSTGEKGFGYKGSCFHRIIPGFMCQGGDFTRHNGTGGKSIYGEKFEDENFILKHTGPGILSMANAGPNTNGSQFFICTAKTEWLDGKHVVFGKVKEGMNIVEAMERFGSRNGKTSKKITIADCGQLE
Chain of K-Ras G12C (P01116-2 other isoform, or with tags, fused parts or gaps G12C): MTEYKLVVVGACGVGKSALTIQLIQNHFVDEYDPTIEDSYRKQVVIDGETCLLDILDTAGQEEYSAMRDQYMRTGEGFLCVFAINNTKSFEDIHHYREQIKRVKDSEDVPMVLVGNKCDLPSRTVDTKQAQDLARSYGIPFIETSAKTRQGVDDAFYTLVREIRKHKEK
Chain of K-Ras G12C (P62937 whole entry): as the sequence (P62937 whole entry) above
Chain of KRAS G13D (P01116-2 other isoform, or with tags, fused parts or gaps G13D): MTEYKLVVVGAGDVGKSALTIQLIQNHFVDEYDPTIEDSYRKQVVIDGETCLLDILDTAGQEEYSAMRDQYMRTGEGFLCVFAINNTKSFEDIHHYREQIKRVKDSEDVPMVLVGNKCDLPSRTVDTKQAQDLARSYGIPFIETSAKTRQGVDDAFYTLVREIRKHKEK
Chain of KRAS G13D (P62937 whole entry): as the sequence (P62937 whole entry) above
Chain of K-Ras G13C (P01116-2 other isoform, or with tags, fused parts or gaps G13C): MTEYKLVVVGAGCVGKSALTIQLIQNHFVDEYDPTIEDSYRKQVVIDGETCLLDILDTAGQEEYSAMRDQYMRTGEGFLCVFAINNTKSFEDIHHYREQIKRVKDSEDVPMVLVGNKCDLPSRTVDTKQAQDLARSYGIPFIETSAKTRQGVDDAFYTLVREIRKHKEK
Chain of K-Ras G13C (P62937 whole entry): as the sequence (P62937 whole entry) above
Chain of NRAS G12C (P01111 whole entry G12C): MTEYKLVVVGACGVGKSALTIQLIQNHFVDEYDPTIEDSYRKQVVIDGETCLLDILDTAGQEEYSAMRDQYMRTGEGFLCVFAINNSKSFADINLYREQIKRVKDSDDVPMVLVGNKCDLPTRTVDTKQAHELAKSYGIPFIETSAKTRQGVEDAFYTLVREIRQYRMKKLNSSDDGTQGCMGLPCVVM
Chain of NRAS G12C (P62937 whole entry): as the sequence (P62937 whole entry) above
Chain of KRAS G12V (P01116-2 other isoform, or with tags, fused parts or gaps G12V): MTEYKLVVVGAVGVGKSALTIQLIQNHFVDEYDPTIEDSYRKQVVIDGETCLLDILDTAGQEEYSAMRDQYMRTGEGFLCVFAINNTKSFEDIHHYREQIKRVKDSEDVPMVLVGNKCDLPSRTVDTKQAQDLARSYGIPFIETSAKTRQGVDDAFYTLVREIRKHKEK
Chain of KRAS G12V (P62937 whole entry): as the sequence (P62937 whole entry) above
Chain of KRAS G12D (P01116-2 other isoform, or with tags, fused parts or gaps G12D): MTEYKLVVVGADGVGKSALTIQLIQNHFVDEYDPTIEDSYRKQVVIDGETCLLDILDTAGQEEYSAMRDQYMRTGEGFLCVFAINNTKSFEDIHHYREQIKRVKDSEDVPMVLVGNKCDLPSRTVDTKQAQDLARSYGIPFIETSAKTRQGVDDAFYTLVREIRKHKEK
Chain of KRAS G12D (P62937 whole entry): as the sequence (P62937 whole entry) above
Chain of KRAS G12S (P01116-2 other isoform, or with tags, fused parts or gaps G12S): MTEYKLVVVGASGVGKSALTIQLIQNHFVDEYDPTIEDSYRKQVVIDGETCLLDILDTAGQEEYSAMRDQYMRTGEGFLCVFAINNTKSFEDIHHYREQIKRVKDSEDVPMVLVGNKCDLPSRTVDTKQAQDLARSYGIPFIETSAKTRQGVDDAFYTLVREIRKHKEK
Chain of KRAS G12S (P62937 whole entry): as the sequence (P62937 whole entry) above

Row | Compound | pIC50 [1] | pIC50 [2] | pIC50 [3] | pIC50 [4] | pIC50 [5] | pIC50 [6] | pIC50 [7] | pIC50 [8] | pEC50 [9] | pIC50 [10]
1 | CCn1c(-c2cccnc2[C@H](C)OC)c2c3cc(ccc31)-c1csc(n1)C[C@H](NC(=O)[C@H](C(C)C)N1CC[C@]3(CCN(C(=O)C#CC(C)(C)N(C)C)C3)C1=O)C(=O)N1CCC[C@H](N1)C(=O)OCC(C)(C)C2 (atropisomer, axis not shown) [Example A411] | 5.00 to 6.00 | 5.00 to 6.00 | > 8.00 | 5.00 to 6.00 | 5.00 to 6.00 | > 8.00 | 6.00 to 7.00 | 5.00 to 6.00 | > 5.30 | > 8.00
2 | CC#CC(=O)N1CC[C@]2(CCN([C@H](C(=O)N[C@H]3Cc4cccc(c4)-c4ccc5c(c4)c(c(-c4cccnc4[C@H](C)OC)n5CC)CC(C)(C)COC(=O)[C@@H]4CCCN(N4)C3=O)C(C)C)C2=O)C1 (atropisomer, axis not shown) [Example A412] | 5.00 to 6.00 | 5.00 to 6.00 | 7.00 to 8.00 | 5.00 to 6.00 | 5.00 to 6.00 | 6.00 to 7.00 | 6.00 to 7.00 | 5.00 to 6.00 | > 5.30 | 6.00 to 7.00
3 | CC#CC(=O)N1C[C@H](C)[C@H](C(=O)N(C)[C@H](C(=O)N[C@H]2Cc3cccc(c3)-c3ccc4c(c3)c(c(-c3cccnc3[C@H](C)OC)n4CC)CC(C)(C)COC(=O)[C@@H]3CCCN(N3)C2=O)C(C)C)C1 (atropisomer, axis not shown) [Example A413] | 5.00 to 6.00 | 5.00 to 6.00 | 7.00 to 8.00 | 5.00 to 6.00 | < 5.00 | 6.00 to 7.00 | 5.00 to 6.00 | 5.00 to 6.00 | > 5.30 | 6.00 to 7.00
4 | CCn1c(-c2cccnc2[C@H](C)OC)c2c3cc(ccc31)-c1cccc(c1)C[C@H](NC(=O)[C@H](C(C)C)N1CC[C@@]3(CCN(C(=O)C#CC(C)(C)N(C)C)C3)C1=O)C(=O)N1CCC[C@H](N1)C(=O)OCC(C)(C)C2 (atropisomer, axis not shown) [Example A414] | < 5.00 | < 5.00 | > 8.00 | 5.00 to 6.00 | < 5.00 | > 8.00 | 5.00 to 6.00 | 5.00 to 6.00 | > 5.30 | > 8.00
5 | C=CC(=O)N1CCC12CCN(C(=O)N(C)[C@H](C(=O)N[C@H]1Cc3nc(cs3)-c3ccc4c(c3)c(c(-c3cccnc3[C@H](C)OC)n4CC)CC(C)(C)COC(=O)[C@@H]3CCCN(N3)C1=O)C(C)C)CC2 (atropisomer, axis not shown) [Example A415] | 6.00 to 7.00 | 6.00 to 7.00 | 7.00 to 8.00 | 6.00 to 7.00 | 5.00 to 6.00 | 6.00 to 7.00 | 6.00 to 7.00 | 6.00 to 7.00 | > 5.30 | 6.00 to 7.00
6 | C=CC(=O)N1C[C@@H](C)N(C(=O)N(C)[C@H](C(=O)N[C@H]2Cc3nc(cs3)-c3ccc4c(c3)c(c(-c3cccnc3[C@H](C)OC)n4CC)CC(C)(C)COC(=O)[C@@H]3CCCN(N3)C2=O)C(C)C)C[C@@H]1C (atropisomer, axis not shown) [Example A418] | 6.00 to 7.00 | 7.00 to 8.00 | 7.00 to 8.00 | 7.00 to 8.00 | 6.00 to 7.00 | 7.00 to 8.00 | 7.00 to 8.00 | 7.00 to 8.00 | > 5.30 | 7.00 to 8.00
7 | C=CC(=O)N1CC2(C1)CN(C(=O)N(C)[C@H](C(=O)N[C@H]1Cc3nc(cs3)-c3ccc4c(c3)c(c(-c3cccnc3[C@H](C)OC)n4CC)CC(C)(C)COC(=O)[C@@H]3CCCN(N3)C1=O)C(C)C)C2 (atropisomer, axis not shown) [Example A419] | 5.00 to 6.00 | 6.00 to 7.00 | > 8.00 | 6.00 to 7.00 | 5.00 to 6.00 | 6.00 to 7.00 | 6.00 to 7.00 | 6.00 to 7.00 | > 5.30 | 7.00 to 8.00
8 | C=CC(=O)N1CCN(C(=O)N(C)[C@H](C(=O)N[C@H]2Cc3nc(cs3)-c3ccc4c(c3)c(c(-c3cccnc3[C@H](C)OC)n4CC)CC(C)(C)COC(=O)[C@@H]3CCCN(N3)C2=O)C(C)C)[C@@H](C)C1 (atropisomer, axis not shown) [Example A421] | 6.00 to 7.00 | 6.00 to 7.00 | 7.00 to 8.00 | 6.00 to 7.00 | 5.00 to 6.00 | 7.00 to 8.00 | 7.00 to 8.00 | 6.00 to 7.00 | > 5.30 | 7.00 to 8.00
